Measured values as given in patent publication US9695155B2, “Herbicidal substituted pyrimidinyloxy benzene compounds” (E. I. DU PONT DE NEMOURS AND COMPANY, priority 2013, dated 2017).

Legend:
[1] = test system: wheat; test: Test A postemergence; type: in vivo, Triticum aestivum
Summary of the method: (§1)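 Pre- and postemergence greenhouse screen. Soil: loam + sand. Spray carrier: solvent mixture, non-phytotoxic, with surfactant. Post timing at 1–2 leaves, height 2–10 cm. Readout: visual injury on a 0–100 scale roughly 10 days after application, untreated plants as reference.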

[2] = test system: oilseed rape; test: Test C postemergence; type: in vivo, Brassica napus; details: for Oilseed Rape plant response rating: 31 g ai/ha
Summary of the method: (§2)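 Injury was assessed visually against controls 13 to 15 days after application, with 0 meaning no effect and 100 full control; missing entries are shown as a dash. Preemergence sprays hit seeded loam–sand soil, postemergence sprays hit 1- to 4-leaf plants.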

[3] = test system: rice; test: Test B flooded paddy test; type: in vivo, Oryza sativa; details: Flood, 250 g ai/ha, 0 to 100 scale where 0 is no effect and 100 is complete control
Summary of the method: (§3)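 Scores from 0 (no effect) to 100 (complete control) are visual comparisons with controls, taken 13 to 15 days after compound was applied into floodwater 3 cm deep around 2-leaf plants.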

[4] = test system: lambsquarters; test: Test C postemergence; type: in vivo, Chenopodium album; details: for Lambsquarters plant response rating: 31 g ai/ha
Summary of the method: as §2

[5] = test system: Heteranthera limosa; test: Test B flooded paddy test; type: in vivo; details: Flood, 250 g ai/ha, 0 to 100 scale where 0 is no effect and 100 is complete control
Summary of the method: as §3

[6] = test system: velvetleaf; test: Test C postemergence; type: in vivo, Abutilon theophrasti; details: for Velvetleaf plant response rating: 31 g ai/ha
Summary of the method: as §2

[7] = test system: pigweed; test: Test C postemergence; type: in vivo, Amaranthus retroflexus; details: for Pigweed plant response rating: 31 g ai/ha
Summary of the method: as §2

[8] = test system: kochia; test: Test C postemergence; type: in vivo, Kochia scoparia
Summary of the method: as §2

[9] = test system: soybean; test: Test C postemergence; type: in vivo, Glycine max; details: for Soybean plant response rating: 31 g ai/ha
Summary of the method: as §2

[10] = test system: morningglory; test: Test C postemergence; type: in vivo, Ipomoea coccinea; details: for Morningglory plant response rating: 31 g ai/ha
Summary of the method: as §2

[11] = test system: giant foxtail; test: Test A postemergence; type: in vivo, Setaria faberii
Summary of the method: as §1

[12] = postemergence, visual rating, scale 0 to 100 (0 no effect, 100 complete control), 13 to 15 days
[13] = 125 g ai/ha, 0 to 100 scale, 0 no effect, 100 complete control
[14] = 500 g ai/ha, 0 to 100 scale where 0 is no effect and 100 is complete control
[15] = 16 g ai/ha, postemergence, 0 is no effect, 100 is complete control
[16] = 125 g ai/ha, postemergence, visual rating, scale 0 to 100 (0 no effect, 100 complete control)
[17] = Postemergence, 62 g ai/ha, scale 0 to 100 (0 no effect, 100 complete control), 13 to 15 days

N#Cc1cccc(Oc2ncc(Cl)cn2)c1-n1cc(C(F)F)cn1 [Compound 253, 3-(5-chloropyrimidin-2-yl)oxy-2-[4-(difluoromethyl)-1H-pyrazol-1-yl]benzonitrile]
plant injury at 31 g/ha ([1]; Triticum aestivum, post-emergence, 240 h, 31 g ai/ha, 0 to 100 scale, 0 no effect, 100 complete control, read-out: Plant response rating, Wheat): 20%
plant injury at 125 g/ha ([1]; Triticum aestivum, post-emergence, 240 h, 125 g ai/ha, 0 to 100 scale, 0 no effect, 100 complete control, read-out: Plant response rating, Wheat): 30%
Oilseed Rape plant response rating [2, 12]: 60
plant injury at 16 g/ha ([2]; Brassica napus, post-emergence, 16 g ai/ha, postemergence, 0 is no effect, 100 is complete control, read-out: Plant response rating (0 to 100), Oilseed Rape): 5%
plant injury at 125 g/ha ([2]; Brassica napus, post-emergence, 125 g ai/ha, postemergence, visual rating, scale 0 to 100 (0 no effect, 100 complete control), read-out: Plant response rating, Oilseed Rape): 80%
plant injury at 62 g/ha ([2]; Brassica napus, post-emergence, Postemergence, 62 g ai/ha, scale 0 to 100 (0 no effect, 100 complete control), 13 to 15 days, read-out: Plant response rating, Oilseed Rape): 10%
plant injury at 250 g/ha ([3]; Oryza sativa, read-out: Plant response rating, Rice): 25%
Lambsquarters plant response rating [4, 12]: 80
pest or weed control at 16 g/ha ([4]; Chenopodium album, post-emergence, 16 g ai/ha, postemergence, 0 is no effect, 100 is complete control, read-out: Plant response rating (0 to 100), Lambsquarters): 30%
pest or weed control at 125 g/ha ([4]; Chenopodium album, post-emergence, 125 g ai/ha, postemergence, visual rating, scale 0 to 100 (0 no effect, 100 complete control), read-out: Plant response rating, Lambsquarters): 95%
pest or weed control at 62 g/ha ([4]; Chenopodium album, post-emergence, Postemergence, 62 g ai/ha, scale 0 to 100 (0 no effect, 100 complete control), 13 to 15 days, read-out: Plant response rating, Lambsquarters): 80%
pest or weed control at 250 g/ha ([5]; Heteranthera limosa, read-out: Plant response rating, Ducksalad): 75%
Velvetleaf plant response rating [6, 12]: 70
pest or weed control at 16 g/ha ([6]; Abutilon theophrasti, post-emergence, 16 g ai/ha, postemergence, 0 is no effect, 100 is complete control, read-out: Plant response rating (0 to 100), Velvetleaf): 30%
pest or weed control at 125 g/ha ([6]; Abutilon theophrasti, post-emergence, 125 g ai/ha, postemergence, visual rating, scale 0 to 100 (0 no effect, 100 complete control), read-out: Plant response rating, Velvetleaf): 85%
pest or weed control at 62 g/ha ([6]; Abutilon theophrasti, post-emergence, Postemergence, 62 g ai/ha, scale 0 to 100 (0 no effect, 100 complete control), 13 to 15 days, read-out: Plant response rating, Velvetleaf): 70%
Pigweed plant response rating [7, 12]: 85
pest or weed control at 16 g/ha ([7]; Amaranthus retroflexus, post-emergence, 16 g ai/ha, postemergence, 0 is no effect, 100 is complete control, read-out: Plant response rating (0 to 100), Pigweed): 85%
pest or weed control at 125 g/ha ([7]; Amaranthus retroflexus, post-emergence, 125 g ai/ha, postemergence, visual rating, scale 0 to 100 (0 no effect, 100 complete control), read-out: Plant response rating, Pigweed): 95%
pest or weed control at 62 g/ha ([7]; Amaranthus retroflexus, post-emergence, Postemergence, 62 g ai/ha, scale 0 to 100 (0 no effect, 100 complete control), 13 to 15 days, read-out: Plant response rating, Pigweed): 98%
pest or weed control at 16 g/ha ([8]; Bassia scoparia, post-emergence, 16 g ai/ha, postemergence, 0 is no effect, 100 is complete control, read-out: Plant response rating (0 to 100), Kochia): 80%
pest or weed control at 31 g/ha ([8]; Bassia scoparia, post-emergence, 31 g ai/ha, postemergence, visual rating, scale 0 to 100 (0 no effect, 100 complete control), 13 to 15 days, read-out: Kochia plant response rating): 98%
pest or weed control at 125 g/ha ([8]; Bassia scoparia, post-emergence, 125 g ai/ha, postemergence, visual rating, scale 0 to 100 (0 no effect, 100 complete control), read-out: Plant response rating, Kochia): 100%
pest or weed control at 62 g/ha ([8]; Bassia scoparia, post-emergence, Postemergence, 62 g ai/ha, scale 0 to 100 (0 no effect, 100 complete control), 13 to 15 days, read-out: Plant response rating, Kochia): 100%
Soybean plant response rating [9, 12]: 60
Soybean plant response rating (crop injury, 0-100 scale) at 16 g/ha ([9]; Glycine max, post-emergence, 16 g ai/ha, postemergence, 0 is no effect, 100 is complete control): 40%
Soybean plant response rating (crop injury, 0-100 scale) at 125 g/ha ([9]; Glycine max, post-emergence, 125 g ai/ha, postemergence, visual rating, scale 0 to 100 (0 no effect, 100 complete control), read-out: Plant response rating, Soybean): 90%
Soybean plant response rating (crop injury, 0-100 scale) at 62 g/ha ([9]; Glycine max, post-emergence, Postemergence, 62 g ai/ha, scale 0 to 100 (0 no effect, 100 complete control), 13 to 15 days): 40%
Morningglory plant response rating [10, 12]: 75
pest or weed control at 16 g/ha ([10]; Ipomoea, post-emergence, 16 g ai/ha, postemergence, 0 is no effect, 100 is complete control, read-out: Plant response rating (0 to 100), Morningglory): 60%
pest or weed control at 125 g/ha ([10]; Ipomoea, post-emergence, 125 g ai/ha, postemergence, visual rating, scale 0 to 100 (0 no effect, 100 complete control), read-out: Plant response rating, Morningglory): 85%
pest or weed control at 62 g/ha ([10]; Ipomoea, post-emergence, Postemergence, 62 g ai/ha, scale 0 to 100 (0 no effect, 100 complete control), 13 to 15 days, read-out: Plant response rating, Morningglory): 75%
pest or weed control at 31 g/ha ([11]; Setaria faberi, post-emergence, 240 h, 31 g ai/ha, 0 to 100 scale, 0 no effect, 100 complete control, read-out: Plant response rating, Foxtail, Giant): 20%
pest or weed control at 125 g/ha ([11]; Setaria faberi, post-emergence, 240 h, 125 g ai/ha, 0 to 100 scale, 0 no effect, 100 complete control, read-out: Plant response rating, Foxtail, Giant): 100%

N#Cc1cn(-c2c(C#N)cccc2Oc2ncc(Cl)cn2)nn1 [Compound 273]
Plant response rating, Wheat [1, 13]: 10
Plant response rating, Wheat [1, 14]: 50
Plant response rating (0 to 100), Oilseed Rape [2, 15]: 0
Oilseed Rape plant response rating [2, 12]: 0
Plant response rating, Oilseed Rape [2, 16]: 25
Plant response rating, Oilseed Rape [2, 17]: 5
Plant response rating, Rice [3]: 0
Plant response rating (0 to 100), Lambsquarters [4, 15]: 25
Lambsquarters plant response rating [4, 12]: 40
Plant response rating, Lambsquarters [4, 16]: 80
Plant response rating, Lambsquarters [4, 17]: 85
Plant response rating, Ducksalad [5]: 75
Plant response rating (0 to 100), Velvetleaf [6, 15]: 5
Velvetleaf plant response rating [6, 12]: 10
Plant response rating, Velvetleaf [6, 16]: 30
Plant response rating, Velvetleaf [6, 17]: 25
Plant response rating (0 to 100), Pigweed [7, 15]: 65
Pigweed plant response rating [7, 12]: 80
Plant response rating, Pigweed [7, 16]: 90
Plant response rating, Pigweed [7, 17]: 65
Plant response rating (0 to 100), Kochia [8, 15]: 70
Kochia plant response rating ([8]; 31 g ai/ha, postemergence, visual rating, scale 0 to 100 (0 no effect, 100 complete control), 13 to 15 days): 65
Plant response rating, Kochia [8, 16]: 95
Plant response rating, Kochia [8, 17]: 80
Plant response rating (0 to 100), Soybean [9, 15]: 60
Soybean plant response rating [9, 12]: 70
Plant response rating, Soybean [9, 16]: 90
Plant response rating, Soybean [9, 17]: 90
Plant response rating (0 to 100), Morningglory [10, 15]: 60
Morningglory plant response rating [10, 12]: 65
Plant response rating, Morningglory [10, 16]: 85
Plant response rating, Morningglory [10, 17]: 65
Plant response rating, Foxtail, Giant [11, 13]: 70
Plant response rating, Foxtail, Giant [11, 14]: 90
